How the values were obtained:
[1] = tested on: HSV-1, strain E-377; assay: Orofacial HSV-1 infection in SKH-1 mice: mortality and facial lesion scores; assay type: in vivo; conditions: for Mortality Number: dead/total, topical 3 times daily Days 4-6, 20 min intervals, acyclovir 3 times daily for 5 days from 24 h after inoculation; for #With Lesions/#Inoculated: facial lesions, days 1-21; for Mean Peak Lesion Score ± SD: lesion score scale 0.0-5.0
Procedure: In this model, mice are anesthetized with a ketamine/xylazine mixture and implanted with an electronic microchip for individual identification. […] This procedure is performed carefully to prevent bleeding. […] Following this procedure, animals are returned to their cages and observed until recovery.
(§1) To determine the effect of treatment on cutaneous viral replication, severity of lesions is scored from days 1-21 and swabs of the snout area are taken on days 2-8 and 10. […] All drug studies are placebo or vehicle controlled.
(§2) During the post-challenge phase, animals were examined daily and lesions scored for severity and samples taken for quantitation of orofacial HSV replication.
Female SKH-1 mice (Charles River Laboratories, Raleigh, N.C.) were assigned randomly to groups. Each efficacy group contained 10 animals. Animals were anesthetized with ketamine-xylazine, implanted with an identification microchip, and has the orofacial area abraded using a Dremmel tool with an engraving bit.
To determine the effect of treatment on the development and severity of lesions, severity of lesions were graded on a 0.0 to 5.0 scale in 0.5 increments, according to the scale below. The presence or absence of lesions and severity of lesions was recorded daily beginning day 1 through day 21 post-challenge. Animals were observed daily for signs of systemic viral disease.
(§3) Mortality rates were analyzed by Fisher's exact test and mean day of death using Mann-Whitney U rank sum test. Infection rates, peak lesion scores, peak virus titers, areas under the curve for virus titer-day and lesion score-day between control and treated animals will be compared using the Mann-Whitney U Rank Sum Test.

[2] = tested on: HSV-1, strain E-377; assay: Orofacial HSV-1 infection in SKH-1 mice: virus titers of orofacial swabs (CPE microtiter assay on rabbit kidney cells); assay type: in vivo; conditions: for mean virus titer ± standard deviation, Day 4 am: Day 4, am (before treatments); for mean virus titer ± standard deviation, Day 4 pm: Day 4, pm (after treatments); for mean virus titer ± standard deviation, Day 5 am: Day 5, am (before treatments); for mean virus titer ± standard deviation, Day 5 pm: Day 5, pm (after treatments); for mean virus titer ± standard deviation, Day 6 am: Day 6, am (before treatments); for mean virus titer ± standard deviation, Day 6 pm: Day 6, pm (after treatments); for Mean Peak Titer Score ± SD: orofacial swabs; for #Virus Positive/#Inoculated / Titer-Day AUC: orofacial swabs days 2-8 and 10
Source text: as §1, §2
To determine the effect of treatment on HSV-1 replication on the orofacial area, swabs of the area were obtained on days 2 through 8 and 10 post-viral challenge. On treatment days, swabs were obtained at least 3 hours following the final treatment. Swabs were placed in tubes containing 2.0 ml of media, vortexed, and frozen at −70° C. until titrated for HSV. […] Wells were seeded with 10^4 cells per well and inoculated in triplicate 24 h later. The plates were read under a microscope five days after viral inoculation and the presence/absence of viral CPE in each well noted. A TCID50 value was calculated using Reed-Muench Methodology.
To determine the effect of treatment on HSV-1 replication from the lesions on the orofacial area, swabs of the area were obtained at least 3 hours after treatment on days when mice are treated. […] Samples were taken before treatments and after treatments.
as §3, with “Test. A P-value of 0.05 or less will be considered significant.” for “Test.”
In addition, the immediate post treatment effects on lesion derived virus titers was analyzed using the mixed linear model with a P-value of 0.05 or less considered as significant. This difference in virus recovered from animals before and after treatments for all treatment days was used to calculate significance.

[3] = same regimens as Mortality Number

Row | Molecule | Mortality Number [1] | #With Lesions/#Inoculated [1] | Mean Peak Lesion Score ± SD [1] | Lesion-Day AUC ([1]; lesion score scale 0.0-5.0, days 1-21) | MDD (Mean Day of Death) [1, 3] | Mortality Percent [1, 3] [%] | mean virus titer ± standard deviation, Day 4 am [2] | mean virus titer ± standard deviation, Day 4 pm [2] [TCID50] | mean virus titer ± standard deviation, Day 5 am [2] [TCID50] | mean virus titer ± standard deviation, Day 5 pm [2] [TCID50] | mean virus titer ± standard deviation, Day 6 am [2] [TCID50] | mean virus titer ± standard deviation, Day 6 pm [2] [TCID50] | Mean Peak Titer Score ± SD [2] | #Virus Positive/#Inoculated [2] | Titer-Day AUC [2]
1 | Ethyl alcohol [Compound 1] | 8/10 | 10/10 | 3.0 ± 0.0↑ | 41.1↑ | 7.9 | 80 | 5.1 ± 1.0^ TCID50 | 5.1 ± 1.5 | 5.7 ± 0.4 | 5.6 ± 0.6 | 4.9 ± 0.7 | 4.0 ± 0.8 | 6.0 ± 0.2 | 10/10 | 32.2
2 | Glycolic acid [Compound 2] |  |  |  |  |  |  | 4.2 ± 1.3^ TCID50 | 4.2 ± 1.6 | 5.5 ± 0.4 | 5.1 ± 0.6 | 5.2 ± 0.6 | 4.4 ± 0.5 | 5.3 ± 0.5 | 10/10 | 33.3
3 | Nc1nc2c(ncn2COCCO)c(=O)[nH]1 [5% Acyclovir, Acyclovir, reference compound] | 0/10 | 0/10 | 0.0 ± 0.0 |  |  | 0 | 0.2 ± 0.8^ TCID50 | 0.0 ± 0.0 | 0.0 ± 0.0 | 0.0 ± 0.0 | 0.0 ± 0.0 | 0.0 ± 0.0 | 0.6 ± 0.1 | 3/10 | 
